≈ marks a conversion by molar mass, not a printed value. Values belong to the compound of their own block, whether it stands above or below them.
Assays:
Staphylococcus sp. = test: in vitro antibacterial evaluation, MIC by broth dilution; type: cell-based; conditions: broth dilution, 18 hours at 35° C.; for MIC Staphylococcus aureus (ATCC 29213): strain ATCC 29213; for MIC Staphylococcus aureus (GC 1131): strain GC 1131; for MIC Staphylococcus aureus (GC 3051): strain GC 3051; for MIC Staphylococcus aureus (GC 3053): strain GC 3053; for MIC Staphylococcus aureus (GC 4541): strain GC 4541; for MIC Staphylococcus aureus (GC 4542): strain GC 4542; for MIC Staphylococcus aureus-SMITH (GC 4543): strain GC 4543; for MIC Staphylococcus aureus (GC 4544): strain GC 4544; for MIC Staphylococcus aureus (GC 4545): strain GC 4545; for MIC Staphylococcus haemolyticus (GC 4546): strain GC 4546; for MIC Coagulase Negative Staphylococcus (GC 4547): strain GC 4547; for MIC Coagulase Negative Staphylococcus (GC 4548): strain GC 4548; for MIC Coagulase Negative Staphylococcus (GC 4549): strain GC 4549; for MIC Coagulase Negative Staphylococcus (GC 4551): strain GC 4551; for MIC Coagulase Negative Staphylococcus (GC 6257): strain GC 6257
Outline: (§1)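 Broth dilution per NCCLS standard M7-A2 in Muller-Hinton II […], with an inoculum of 5×10^5 CFU/mL and antibiotic spanning 64-0.06 μg/mL. The MIC is the lowest concentration that inhibits growth of the organism.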

Streptococcus sp. = test: as above; type: cell-based; conditions: broth dilution, 18 hours at 35° C.
Outline: as §1

Enterococcus sp. = test: as above; type: cell-based; conditions: broth dilution, 18 hours at 35° C.
Outline: as §1

[1] = anatomic pathology (histopathology of heart and kidney) in mice; type: in vivo; conditions: CD-1 mice, 20 mg/kg intravenously daily for 9 days, necropsy day 10, microscopic histopathology
Experimental: Samples of tissues from necropsied mice were formalin-fixed, paraffin-embedded, sectioned, stained with hematoxylin and eosin, and examined microscopically. Histopathologic findings were recorded. These findings were subjectively graded on a scale corresponding to slight, mild, moderate, marked and severe as compared to untreated controls.

Escherichia coli = test: in vitro antibacterial evaluation, MIC by broth dilution; type: cell-based; conditions: 18 hours at 35° C.
Outline: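 Broth dilution in Muller-Hinton II medium per NCCLS standard M7-A2, with an inoculum of 5×10^5 CFU/mL and antibiotic tested over 64-0.06 μg/mL. MIC was taken as the lowest concentration inhibiting visible growth.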

MIC Staphylococcus aureus (ATCC 29213) (Staphylococcus sp.): >128 µg/mL | MIC Staphylococcus aureus (GC 1131) (Staphylococcus sp.): >128 µg/mL | MIC Staphylococcus aureus (GC 3051) (Staphylococcus sp.): >128 µg/mL | MIC Staphylococcus aureus (GC 3053) (Staphylococcus sp.): >128 µg/mL | MIC Staphylococcus aureus (GC 4541) (Staphylococcus sp.): >128 µg/mL | MIC Staphylococcus aureus (GC 4542) (Staphylococcus sp.): >128 µg/mL | MIC Staphylococcus aureus-SMITH (GC 4543) (Staphylococcus sp.): >128 µg/mL | MIC Staphylococcus aureus (GC 4544) (Staphylococcus sp.): >128 µg/mL | MIC Staphylococcus aureus (GC 4545) (Staphylococcus sp.): >128 µg/mL | MIC Coagulase Negative Staphylococcus (GC 4547) (Staphylococcus sp.): >128 µg/mL | MIC Coagulase Negative Staphylococcus (GC 4548) (Staphylococcus sp.): >128 µg/mL | MIC Coagulase Negative Staphylococcus (GC 4549) (Staphylococcus sp.): >128 µg/mL | MIC Coagulase Negative Staphylococcus (GC 4551) (Staphylococcus sp.): >128 µg/mL | MIC Coagulase Negative Staphylococcus (GC 6257) (Staphylococcus sp.): >128 µg/mL | MIC Streptococcus agalactiae (GC 4564) (Streptococcus sp.): >128 µg/mL | MIC Streptococcus pneumoniae (ATCC 6301) (Streptococcus sp.): 128 µg/mL (≈ 88.8 µM) | MIC Streptococcus pneumoniae (GC 1894) (Streptococcus sp.): 64 µg/mL (≈ 44.4 µM) | MIC Streptococcus pneumoniae (GC 4565) (Streptococcus sp.): 128 µg/mL (≈ 88.8 µM) | MIC Streptococcus pyogenes (GC 4563) (Streptococcus sp.): >128 µg/mL | MIC Streptococcus pneumoniae (ATCC 6301) (Streptococcus sp.; strain ATCC 6301): 128 µg/mL (≈ 88.8 µM) | MIC Streptococcus pneumoniae (GC 1894) (Streptococcus sp.; strain GC 1894): 64 µg/mL (≈ 44.4 µM) | MIC Streptococcus pyogenes (GC 4563) (Streptococcus sp.; strain GC 4563): >128 µg/mL | MIC Streptococcus agalactiae (GC 4564) (Streptococcus sp.; strain GC 4564): >128 µg/mL | MIC Streptococcus pneumoniae (GC 4565) (Streptococcus sp.; strain GC 4565): 128 µg/mL (≈ 88.8 µM) | MIC Enterococcus avium (GC 4558) (Enterococcus sp.; Enterococcus avium (GC 4558)): 128 µg/mL (≈ 88.8 µM) | MIC Enterococcus faecalis (ATCC 29212) (Enterococcus sp.; Enterococcus faecalis (ATCC 29212)): >128 µg/mL | MIC Enterococcus faecalis (GC 4552) (Enterococcus sp.; Enterococcus faecalis (GC 4552)): >128 µg/mL | MIC Enterococcus faecalis (GC 4553) (Enterococcus sp.; Enterococcus faecalis (GC 4553)): 128 µg/mL (≈ 88.8 µM) | MIC Enterococcus faecalis (GC 4554) (Enterococcus sp.; Enterococcus faecalis (GC 4554)): >128 µg/mL | MIC Enterococcus faecalis (GC 6189) (Enterococcus sp.; Enterococcus faecalis (GC 6189)): >128 µg/mL | MIC Enterococcus faecium (GC 2243) (Enterococcus sp.; Enterococcus faecium (GC 2243)): >128 µg/mL | MIC Enterococcus faecium (GC 4556) (Enterococcus sp.; Enterococcus faecium (GC 4556)): >128 µg/mL | MIC Enterococcus faecium (GC 4557) (Enterococcus sp.; Enterococcus faecium (GC 4557)): 128 µg/mL (≈ 88.8 µM) | MIC Enterococcus avium (GC 4558) (Enterococcus sp.): 128 µg/mL (≈ 88.8 µM) | MIC Enterococcus faecalis (ATCC 29212) (Enterococcus sp.): >128 µg/mL | MIC Enterococcus faecalis (GC 2242) (Enterococcus sp.): >128 µg/mL | MIC Enterococcus faecalis (GC 2691) (Enterococcus sp.): >128 µg/mL | MIC Enterococcus faecalis (GC 3059) (Enterococcus sp.): >128 µg/mL | MIC Enterococcus faecalis (GC 4552) (Enterococcus sp.): >128 µg/mL | MIC Enterococcus faecalis (GC 4553) (Enterococcus sp.): 128 µg/mL (≈ 88.8 µM) | MIC Enterococcus faecalis (GC 4554) (Enterococcus sp.): >128 µg/mL | MIC Enterococcus faecalis (GC 6189) (Enterococcus sp.): >128 µg/mL | MIC Enterococcus faecium (GC 2243) (Enterococcus sp.): >128 µg/mL | MIC Enterococcus faecium (GC 4556) (Enterococcus sp.): >128 µg/mL | MIC Enterococcus faecium (GC 4557) (Enterococcus sp.): 128 µg/mL (≈ 88.8 µM) | MIC Enterococcus faecalis (GC 2242) (Enterococcus sp.; strain GC 2242): >128 µg/mL | MIC Enterococcus faecalis (GC 2691) (Enterococcus sp.; strain GC 2691): >128 µg/mL | MIC Enterococcus faecalis (GC 3059) (Enterococcus sp.; strain GC 3059): >128 µg/mL | MIC Escherichia coli (ATCC 25922) (Escherichia coli): >128 µg/mL | MIC Escherichia coli (GC 4559) (Escherichia coli): >128 µg/mL | MIC Escherichia coli (GC 4560) (Escherichia coli): 16 µg/mL (≈ 11.1 µM)
SMILES: CC(c1ccccc1)C1NC(=O)CNC(=O)C(CO)NC(=O)C(C(O)C2CN(Cc3ccc(C(C)(C)C)cc3)C(=N)N2C2OC(CO)C(O)C(O)C2O)NC(=O)C(C(O)C2CNC(=N)N2)NC(=O)C(Cc2ccc(OC3OC(CO)C(OC4OC(CO)C(O)C(O)C4O)C(O)C3O)cc2)NC1=O (stereo not drawn) [Example 60, Cyclo[glycyl-β-methylphenylalanyl-O-(4-O-hexopyranosylhexopyranosyl)tyrosl-(2-iminoimidazolidin-4-yl)seryl-3-[1-(4-tert-butylbenzyl)-3-hexopyranosyl-2-iminoimidazolidin-4-yl]-serylseryl]]
MIC Staphylococcus haemolyticus (GC 4546) (Staphylococcus sp.): >128 µg/mL | Anatomical Pathology (Day 10), Heart [1]: 0 | Anatomical Pathology (Day 10), Kidney [1]: 0

MIC Staphylococcus aureus (ATCC 29213) (Staphylococcus sp.): >128 µg/mL | MIC Staphylococcus aureus (GC 1131) (Staphylococcus sp.): >128 µg/mL | MIC Staphylococcus aureus (GC 3051) (Staphylococcus sp.): >128 µg/mL | MIC Staphylococcus aureus (GC 3053) (Staphylococcus sp.): >128 µg/mL | MIC Staphylococcus aureus (GC 4541) (Staphylococcus sp.): >128 µg/mL | MIC Staphylococcus aureus (GC 4542) (Staphylococcus sp.): >128 µg/mL | MIC Staphylococcus aureus-SMITH (GC 4543) (Staphylococcus sp.): >128 µg/mL | MIC Staphylococcus aureus (GC 4544) (Staphylococcus sp.): >128 µg/mL | MIC Staphylococcus aureus (GC 4545) (Staphylococcus sp.): >128 µg/mL | MIC Coagulase Negative Staphylococcus (GC 4547) (Staphylococcus sp.): >128 µg/mL | MIC Coagulase Negative Staphylococcus (GC 4548) (Staphylococcus sp.): >128 µg/mL | MIC Coagulase Negative Staphylococcus (GC 4549) (Staphylococcus sp.): >128 µg/mL | MIC Coagulase Negative Staphylococcus (GC 4551) (Staphylococcus sp.): >128 µg/mL | MIC Coagulase Negative Staphylococcus (GC 6257) (Staphylococcus sp.): >128 µg/mL | MIC Streptococcus agalactiae (GC 4564) (Streptococcus sp.): >128 µg/mL | MIC Streptococcus pneumoniae (ATCC 6301) (Streptococcus sp.): >128 µg/mL | MIC Streptococcus pneumoniae (GC 1894) (Streptococcus sp.): >128 µg/mL | MIC Streptococcus pneumoniae (GC 4565) (Streptococcus sp.): >128 µg/mL | MIC Streptococcus pyogenes (GC 4563) (Streptococcus sp.): >128 µg/mL | MIC Enterococcus avium (GC 4558) (Enterococcus sp.): >128 µg/mL | MIC Enterococcus faecalis (ATCC 29212) (Enterococcus sp.): >128 µg/mL | MIC Enterococcus faecalis (GC 2242) (Enterococcus sp.): >128 µg/mL | MIC Enterococcus faecalis (GC 2691) (Enterococcus sp.): >128 µg/mL | MIC Enterococcus faecalis (GC 3059) (Enterococcus sp.): >128 µg/mL | MIC Enterococcus faecalis (GC 4552) (Enterococcus sp.): >128 µg/mL | MIC Enterococcus faecalis (GC 4553) (Enterococcus sp.): >128 µg/mL | MIC Enterococcus faecalis (GC 4554) (Enterococcus sp.): >128 µg/mL | MIC Enterococcus faecalis (GC 6189) (Enterococcus sp.): >128 µg/mL | MIC Enterococcus faecium (GC 2243) (Enterococcus sp.): >128 µg/mL | MIC Enterococcus faecium (GC 4556) (Enterococcus sp.): >128 µg/mL | MIC Enterococcus faecium (GC 4557) (Enterococcus sp.): >128 µg/mL | MIC Escherichia coli (ATCC 25922) (Escherichia coli): >128 µg/mL | MIC Escherichia coli (GC 4559) (Escherichia coli): >128 µg/mL | MIC Escherichia coli (GC 4560) (Escherichia coli): 128 µg/mL (≈ 91.9 µM)
SMILES: CCCCCCCN1CC(C(O)C2NC(=O)C(C(O)C3CNC(=N)N3)NC(=O)C(Cc3ccc(OC4OC(CO)C(OC5OC(CO)C(O)C(O)C5O)C(O)C4O)cc3)NC(=O)C(C(C)c3ccccc3)NC(=O)CNC(=O)C(CO)NC2=O)N(C2OC(CO)C(O)C(O)C2O)C1=N (stereo not drawn) [Example 71, Cyclo[glycyl-β-methylphenylalanyl-O-(4-O-hexopyranosylhexopyranosyl)tyrosyl-3-(2-iminoimidazolidin-4-yl)seryl-3-[1-heptyl-3-hexopyranosyl-2-iminoimidazolidin-4-yl]serylseryl]]
MIC Staphylococcus haemolyticus (GC 4546) (Staphylococcus sp.): >128 µg/mL | Anatomical Pathology (Day 10), Heart [1]: 0 | Anatomical Pathology (Day 10), Kidney [1]: 0
